# Laboratory results published in patent US5834461A, “Tricyclic benzazepine vasopressin antagonists” (American Cyanamid Company, priority 1997, dated 1998).
# How the values were obtained:
# [1] = target: vasopressin V1 receptor (rat liver plasma membranes) (Rattus norvegicus, UniProt P30560); test: Binding Assay to Rat Hepatic V1 Receptors; details: rat hepatic V1
# [2] = target: T1, rat kidney medullary V2 receptors (Rattus norvegicus, UniProt Q00788); test: Binding Assay to Rat Kidney Medullary V2 Receptors; details: rat kidney medullary V2
# T1 construct: Medullary tissues from rat kidneys are dissected out; from tissue; host or cells: rat kidney medulla membranes
# T1 sequence (Q00788 whole entry): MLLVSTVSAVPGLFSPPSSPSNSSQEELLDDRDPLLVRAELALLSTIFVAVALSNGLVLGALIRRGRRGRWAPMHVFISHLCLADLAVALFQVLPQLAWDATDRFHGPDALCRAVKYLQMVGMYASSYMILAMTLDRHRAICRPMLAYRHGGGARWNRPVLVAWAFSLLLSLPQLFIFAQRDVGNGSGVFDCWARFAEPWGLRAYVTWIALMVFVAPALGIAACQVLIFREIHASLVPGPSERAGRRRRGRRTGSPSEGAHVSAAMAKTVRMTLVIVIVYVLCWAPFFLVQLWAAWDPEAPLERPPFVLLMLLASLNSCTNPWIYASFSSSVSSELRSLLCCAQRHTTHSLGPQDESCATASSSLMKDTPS
# How it was run: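 Competition binding: [3H]AVP at 0.8 nM, test compounds from 50% DMSO, and membranes from rat kidney medulla, left 120 min on the bench. Filtration then liquid scintillation counting measured bound ligand; 1.0 μM unlabeled ligand set non-specific binding.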
# vasopressin V2 = test: Vasopressin V2 Antagonist Activity in Conscious Hydrated Rats (diuretic effect); format: in vivo, normal Sprague-Dawley rats; details: 10 mg/kg orally, AVP 0.4 μg/kg i.p.
# How it was run: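 Conscious rats were dosed orally at 0.1–100 mg/kg, and AVP 0.4 μg/kg i.p. in peanut oil followed 1 h later. Urine volume, osmolality and Na/K/Cl were compared against AVP-treated controls, with non-AVP rats as water-loading controls.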
# vasopressin V1 = test: Vasopressin V1 Antagonist Activity in Conscious Rats (vasopressin vasopressor response); format: in vivo, rat (spontaneously hypertensive rats); parameters: Average Change: unit not given here
# How it was run: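 Conscious rats had the ventral caudal tail artery cannulated into the lower abdominal aorta under local procaine anesthesia, plus a caudal vein cannula for intravenous dosing. Pulsatile blood pressure was recorded via a Statham P23Db transducer. Vasopressor responses to vasopressin injections were measured before and after compound dosing, with percent antagonism calculated relative to the pre-drug response taken as 100%.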
# [3] = 10 mg/kg i.v., VAS 0.01 i.u./kg, 30 min
# [4] = 10 mg/kg i.v., VAS 0.05 i.u./kg, 30 min
# [5] = 10 mg/kg i.v., VAS 0.1 i.u./kg, 30 min
# [6] = 20 mg/kg i.v., VAS 0.01 i.u./kg, 60 min
# [7] = 20 mg/kg i.v., VAS 0.01 i.u./kg, 300 min
# [8] = 20 mg/kg i.v., VAS 0.05 i.u./kg, 60 min
# [9] = 20 mg/kg i.v., VAS 0.05 i.u./kg, 90 min
# [10] = 20 mg/kg i.v., VAS 0.05 i.u./kg, 120 min
# [11] = 20 mg/kg i.v., VAS 0.05 i.u./kg, 180 min
# [12] = 20 mg/kg i.v., VAS 0.05 i.u./kg, 240 min
# [13] = 20 mg/kg i.v., VAS 0.05 i.u./kg, 300 min
# [14] = 20 mg/kg i.v., VAS 0.1 i.u./kg, 60 min
# [15] = 20 mg/kg i.v., VAS 0.1 i.u./kg, 90 min
# [16] = 20 mg/kg i.v., VAS 0.1 i.u./kg, 120 min
# [17] = 20 mg/kg i.v., VAS 0.1 i.u./kg, 180 min
# [18] = 20 mg/kg i.v., VAS 0.1 i.u./kg, 240 min
# [19] = 20 mg/kg i.v., VAS 0.1 i.u./kg, 300 min
# [20] = 50 mg/kg p.o., VAS 0.01 i.u./kg, 30 min
# [21] = 50 mg/kg p.o., VAS 0.01 i.u./kg, 60 min
# [22] = 50 mg/kg p.o., VAS 0.01 i.u./kg, 90 min
# [23] = 50 mg/kg p.o., VAS 0.01 i.u./kg, 120 min
# [24] = 50 mg/kg p.o., VAS 0.01 i.u./kg, 180 min
# [25] = 50 mg/kg p.o., VAS 0.01 i.u./kg, 240 min
# [26] = 50 mg/kg p.o., VAS 0.02 i.u./kg, 30 min
# [27] = 50 mg/kg p.o., VAS 0.02 i.u./kg, 60 min
# [28] = 50 mg/kg p.o., VAS 0.02 i.u./kg, 90 min
# [29] = 50 mg/kg p.o., VAS 0.02 i.u./kg, 120 min
# [30] = 50 mg/kg p.o., VAS 0.02 i.u./kg, 180 min
# [31] = 50 mg/kg p.o., VAS 0.02 i.u./kg, 240 min
# Sequence of vasopressin V1 receptor (rat liver plasma membranes) (P30560 whole entry): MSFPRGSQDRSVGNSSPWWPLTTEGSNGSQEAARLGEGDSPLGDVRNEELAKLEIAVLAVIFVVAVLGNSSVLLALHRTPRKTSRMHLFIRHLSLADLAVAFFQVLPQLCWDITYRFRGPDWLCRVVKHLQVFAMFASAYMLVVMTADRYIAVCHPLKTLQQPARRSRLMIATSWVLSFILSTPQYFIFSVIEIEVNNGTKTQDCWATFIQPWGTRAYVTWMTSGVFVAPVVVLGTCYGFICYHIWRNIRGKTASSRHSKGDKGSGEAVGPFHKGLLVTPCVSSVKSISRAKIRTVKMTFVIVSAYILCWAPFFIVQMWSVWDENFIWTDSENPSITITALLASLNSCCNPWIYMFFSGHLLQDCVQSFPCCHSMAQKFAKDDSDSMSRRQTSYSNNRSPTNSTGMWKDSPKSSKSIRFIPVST
structure (smiles),measurement,setting,value
"Cc1ccccc1C(=O)Nc1ccc(C(=O)N2Cc3ccccc3-c3ccccc32)cc1 [Example 5, 2-Methyl-N-[4-[(5(6H)-phenanthridinyl)carbonyl]phenyl]benzamide]",IC50,[1],56 nM
same,IC50,[2],29 nM
same,Osmolality,vasopressin V2,1137 mOsm/kg
same,Urine Volume,vasopressin V2,2 ml/4 hrs.
same,Average Change,vasopressin V1; [3],35
same,Inhibition,vasopressin V1; [3],22%
same,Average Change,vasopressin V1; [4],30
same,Inhibition,vasopressin V1; [4],-9%
same,Average Change,vasopressin V1; [5],35
same,Inhibition,vasopressin V1; [5],22%
same,Average Change,vasopressin V1; [6],17.5
same,Inhibition,vasopressin V1; [6],61%
same,Average Change,vasopressin V1; [7],30
same,Inhibition,vasopressin V1; [7],33%
same,Average Change,vasopressin V1; [8],10
same,Inhibition,vasopressin V1; [8],64%
same,Average Change,vasopressin V1; [9],10
same,Inhibition,vasopressin V1; [9],64%
same,Average Change,vasopressin V1; [10],15
same,Inhibition,vasopressin V1; [10],45%
same,Average Change,vasopressin V1; [11],12.5
same,Inhibition,vasopressin V1; [11],55%
same,Average Change,vasopressin V1; [12],17.5
same,Inhibition,vasopressin V1; [12],36%
same,Average Change,vasopressin V1; [13],22.5
same,Inhibition,vasopressin V1; [13],18%
same,Average Change,vasopressin V1; [14],17.5
same,Inhibition,vasopressin V1; [14],61%
same,Average Change,vasopressin V1; [15],20
same,Inhibition,vasopressin V1; [15],56%
same,Average Change,vasopressin V1; [16],17.5
same,Inhibition,vasopressin V1; [16],61%
same,Average Change,vasopressin V1; [17],20
same,Inhibition,vasopressin V1; [17],56%
same,Average Change,vasopressin V1; [18],25
same,Inhibition,vasopressin V1; [18],44%
same,Average Change,vasopressin V1; [19],30
same,Inhibition,vasopressin V1; [19],33%
same,Average Change,vasopressin V1; [20],22.5
same,Inhibition,vasopressin V1; [20],10%
same,Average Change,vasopressin V1; [21],30
same,Inhibition,vasopressin V1; [21],-20%
same,Average Change,vasopressin V1; [22],17.5
same,Inhibition,vasopressin V1; [22],30%
same,Average Change,vasopressin V1; [23],30
same,Inhibition,vasopressin V1; [23],-20%
same,Average Change,vasopressin V1; [24],20
same,Inhibition,vasopressin V1; [24],20%
same,Average Change,vasopressin V1; [25],22.5
same,Inhibition,vasopressin V1; [25],10%
same,Average Change,vasopressin V1; [26],35
same,Inhibition,vasopressin V1; [26],0%
same,Average Change,vasopressin V1; [27],35.5
same,Inhibition,vasopressin V1; [27],7%
same,Average Change,vasopressin V1; [28],32.5
same,Inhibition,vasopressin V1; [28],7%
same,Average Change,vasopressin V1; [29],40
same,Inhibition,vasopressin V1; [29],-14%
same,Average Change,vasopressin V1; [30],37.5
same,Inhibition,vasopressin V1; [30],-7%
same,Average Change,vasopressin V1; [31],38.5
same,Inhibition,vasopressin V1; [31],-10%
"Cc1ccccc1C(=O)Nc1ccc(C(=O)N2Cc3ccccc3Cc3ccccc32)c(Cl)c1 [Example 260, N-[4-[(6,11-Dihydro-5H-dibenz[b,e]azepin-5-yl)-carbonyl]-3-chlorophenyl]-2-methylbenzamide]",IC50,[1],120 nM
same,IC50,[2],65 nM
same,Osmolality,vasopressin V2,498 ± 25 mOsm/kg
same,Urine Volume,vasopressin V2,13.8 ± 2.1 ml/4 hrs.
same,MAX % Inhibition,vasopressin V1; 30 mg/kg i.v.,79%
same,Time of max % inhibition,vasopressin V1; 30 mg/kg i.v.,120 min
